In patent publication US8252954B2, “Processes for the preparation of calixarene derivatives” (The Curators of The University of Missouri, priority 2007, dated 2012):

How the values were obtained:
[1] = system: Peripheral blood mononuclear cells (PBMC); test: Cell viability assay (MTS assay) on PBMC; type: cell-based, human; conditions: two fold dilutions starting from 10^−4M, FIG. 8 / FIG. 9
Experimental: Cytotoxicity of these calixarenes were conducted using Peripheral Blood Mononucleus Cell line (PBMC) which were extracted from subjects blood (50 ml sample). Each calixarene compound was tested on three subjects out of a pool of 5 people (all caucasian females of 20-25 years of age). The extracted cell content represent 1% of the blood sample and comprised of Lymphocyte (60%) and monocytes (10-15%). The experiment was conducted by incubating the cells in a 96 well plate in triplicate with the calixarenes for 24 hours at different concentrations at an estimated concentration of 100000 cells per well.
A pipeline was designed to obtain reliable preliminary toxicology data in vitro. The pipeline was designed to allow testing of any particles of interest within a short time frame. […]
PBMC were harvested using the Ficoll method. […] The cells are then suspended in freezing media (10% DMSO in HIFCS) at 10 million cells per ml and stored as 1 ml aliquots in liquid nitrogen until it is ready for use. […]
CellTitre 96© Aqueous One Solution Cell Proliferation Assay was used to measure cell viability. […] The PHA was added to trigger activation of lymphocytes which was hypothesised that it may alter the reading of the MTS assay. […] The plate is further incubated for another 4 hours and is read through a spectrophotometer at 490 nm. […]

[2] = system: Peripheral blood mononuclear cells (PBMC): lymphocytes and monocytes; test: 5 colour flow cytometry of PBMC after exposure to calixarenes; type: cell-based, human; conditions: 24 hours, 10^-4M, 2.5×10^-5M, 3.13×10^-6M
Experimental: A 5 colour flow cytometry based assay was done to complement the MTS assay to provide a better snapshot of the toxicology profile of the calixarenes. Four concentrations from the MTS assay graph results (Control, 1, 1/4 dilution and 1/32 dilution) were chosen to illustrate the differences in cell profiles after the exposure of the calixarenes. 500,000 cells in 0.5 ml was cultured with 50 μL of calixarenes in polypropylene tubes (BD Falcon, Sarstedt) for 24 hours at 37° C., 5% CO2, 10° angle with the lid loosely closed. Polypropylene tube cultures were chosen as it provides better yield of monocytes.
After the 24 hour incubation, a cell count was performed to ensure there were at least 200,000 cells in each sample. The cells were centrifuged at 400G for 8 minutes and washed twice with flow buffer (10% bovine serum albumin in 1×PBS) by centrifugation at 400G for 8 minutes. An antibody cocktail of 10 μL annexin V FITC (marker used to detect apoptosis of cells), 5 μL CD3 APC (marker for detection of T-cells), 2.5 μL CD14 PECy7 (marker for detection of monocytes), 5 μL HLA-DR PE (marker for detection of cell activation) and 5 μL 7-AAD (marker to detect cell death) in each tube was prepared. The cells were resuspended in 200 μL of 1× Annexin V binding buffer. 100 μL of the resuspended cells were added to flow tubes containing the antibody cocktail and was incubated at room temperature in the dark for at least 15 minutes. The samples were then read using BD FACS Canto flow cytometer within an hour of antibody incubation. The experiment was replicated in triplicates using PBMC from different individuals.
Lymphocyte and monocyte population characteristics are summarised in the graph in FIG. 8. Lymphocyte and monocyte population numbers are based on total population while apoptotic cells, dead cells, live cells etc are based on their respective populations. Lymphocytes normally make up 60% of total population. […] However, this is most likely due to total lysis of cells, which cannot be detected by dead cell marker. Monocytes normally make up 10-15% of total population. The culturing process seems to cause most monocytes to be apoptotic due to their fragile nature.
Phosphonated calix[5]arene was tested with flow cytometry at the following concentrations; 10^-4M, 2.5×10^-5M (1 in 4 dilution) and 3.13×10^-6M (1 in 32 dilution). Lymphocyte and monocyte population characteristics are summarised in the graph in FIG. 9. Lymphocyte and monocyte population numbers are based on total population while apoptotic cells, dead cells, live cells etc are based on their respective populations. Lymphocytes normally make up 60% of total population. […] However, this is most likely due to total lysis of cells, which cannot be detected by dead cell marker. Monocytes normally make up 10-15% of total population. Culturing process seems to cause most monocytes to be apoptotic due to their fragile nature and this finding is in line with our literature review. There is a decline in monocyte numbers with increasing concentration of this calixarene.

[3] = DMSO, room temperature, FIG. 5

Molecule | toxicity judged from cell viability (absorbance) [1] | monocyte numbers with increasing concentration [2] | proportion of dead lymphocytes with increasing concentration [2] | time over which nano-rafts dissociate into solvated monomeric units [3] | live monocytes population numbers with increasing concentration [2]
5,11,17,23-Tetra(dihydroxyphosphoryl)-25,26,27,28-tetrahydroxycalix[4]arene [phosphonated calix[4]arene] | no significant sign of toxicity | slight decline | seems to decline | 36 h | 
O=P(O)(O)c1cc2c(O)c(c1)Cc1cc(P(=O)(O)O)cc(c1O)Cc1cc(P(=O)(O)O)cc(c1O)Cc1cc(P(=O)(O)O)cc(c1O)Cc1cc(P(=O)(O)O)cc(c1O)C2 [phosphonated calix[5]arene, 5,11,17,23,29-Penta(dihydroxyphosphoryl)-31,32,33,34,35-pentahydroxycalix[5] arene] | less toxicity with this calixarene than with sulphonated calixarenes | decline | seems to decline |  | seems to increase
